{
  "source": "paper PMC11111691",
  "about": "“Cystine-knot peptide inhibitors of HTRA1 bind to a cryptic pocket within the active site region” (Nature Communications, 2024)",
  "key": {"HTRA1^FL": {"target": "T1, HTRA1^FL (Homo sapiens, UniProt Q92743)", "T1 construct": "Human full-length HTRA1 (HTRA1^FL, Q23-P480); made in house; host or cells: Trichoplusia ni cells", "T1 sequence (Q92743 23-480)": "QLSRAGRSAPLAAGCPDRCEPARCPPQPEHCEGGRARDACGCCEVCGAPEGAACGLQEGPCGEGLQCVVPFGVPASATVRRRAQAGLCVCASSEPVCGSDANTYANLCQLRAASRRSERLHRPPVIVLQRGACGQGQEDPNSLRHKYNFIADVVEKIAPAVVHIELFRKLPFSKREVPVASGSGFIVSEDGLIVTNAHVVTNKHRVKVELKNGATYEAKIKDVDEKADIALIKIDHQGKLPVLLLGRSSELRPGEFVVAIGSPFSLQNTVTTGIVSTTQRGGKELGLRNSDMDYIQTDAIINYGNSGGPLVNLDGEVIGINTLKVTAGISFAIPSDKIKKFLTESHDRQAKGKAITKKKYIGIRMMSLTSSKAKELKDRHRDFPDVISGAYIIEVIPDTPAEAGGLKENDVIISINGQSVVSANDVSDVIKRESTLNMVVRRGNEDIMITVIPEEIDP", "experiment": "HTRA1^FL enzyme inhibition assay with synthetic substrate H2-OPT", "format": "biochemical", "description": "(§1) Assays with the fluorescence-quenched synthetic substrate Mca-IRRVSYSFK(Dnp)K (H2-OPT)[38],[60] were carried out essentially as described. CKP stock solutions in DMSO were diluted in TNC buffer (dilution series for IC50 determinations, or final concentration of 2 µM for selectivity assay or as indicated for HTRA1/4 mutants) and incubated with enzymes in 96-well black optical bottom plates for 60 min at 37 °C. For selectivity experiments we used the 7mer-ABP as inhibitor, which was incubated with the proteases for 15 min at 37 °C. A 10 mM stock solution of H2-OPT in DMSO was diluted with water, prewarmed at 37 °C and then added to the CKP-enzyme mixtures. The final concentrations in the reaction mixtures were: 1 nM HTRA1^FL, 3 nM HTRA1^PD/PDZ, 1 nM HTRA1^PD, 1 nM HTRA2^PD/PDZ, 3 nM HTRA3^FL, 60 nM HTRA3^PD/PDZ, 6 nM HTRA4^FL, 1 µM HTRA4^PD/PDZ, 1 nM mouse HTRA1^PD, 25 nM HTRA1^PD-A202Y, 1 µM HTRA4^PD/PDZ-Y200A, 0.5 mM 7mer-ABP, 5 µM H2-OPT, and 0.25% DMSO. The kinetics of substrate cleavage was measured at 37 °C on a SpectraMax M5 microplate reader with excitation of 328 nm and emission of 393 nm. The determined initial rates of cleavage were expressed as percent of control (DMSO control) after subtracting the baseline rates (without enzyme). IC50 values were determined by Sigmoidal 4PL modeling of multiple data points from serial dilutions of CKPs using Prism 9 software (GraphPad). For selectivity assays with HTRA1-4^PD/PDZ constructs, the specific activities of the enzymes and enzyme:CKP inhibitor ratios were as follows: HTRA1^PD/PDZ, 12560 mRFU/min/nM – 1:667; HTRA2^PD/PDZ, 32300 mRFU/min/nM – 1:2000; HTRA3^PD/PDZ, 962 mRFU/min/nM – 1:33; HTRA4^PD/PDZ, 18 mRFU/min/nM – 1:2."}, "HTRA1^PD(SA)": {"target": "T2, HTRA1^PD(SA) (Homo sapiens, UniProt Q92743, S328A)", "T2 construct": "The protease domains of human HTRA1 (HTRA1^PD; D161-K379); made in house; host or cells: E. coli", "T2 sequence (Q92743 161-379 S328A)": "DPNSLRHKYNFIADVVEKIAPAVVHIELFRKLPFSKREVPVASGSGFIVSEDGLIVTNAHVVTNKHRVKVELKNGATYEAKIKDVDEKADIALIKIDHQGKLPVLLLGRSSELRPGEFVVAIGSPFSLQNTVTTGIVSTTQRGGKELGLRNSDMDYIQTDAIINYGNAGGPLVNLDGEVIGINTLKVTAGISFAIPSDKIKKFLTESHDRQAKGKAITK", "experiment": "SPR binding kinetics to HTRA1^PD(SA)", "settings": "mean ± S.D. of three or more independent experiments", "description": "Surface plasmon resonance (SPR) experiments were performed using a Biacore S200 instrument at 25 °C. His-tagged HTRA proteins were captured on a CM5 sensor chip using the His-capture kit (GE Healthcare). Protein concentrations used for immobilization were as follows; HTRA1^PD(SA), HTRA1^PD and HTRA1^PD-ABP 2 µg/ml with 60-s injections at 10 µl/min, HTRA2^PD/PDZ, HTRA3^PD/PDZ, and HTRA4^PD/PDZ 4 µg/ml with 60-s injections at 10 µl/min. Approximate immobilization levels of HTRA proteins were as follows; HTRA1^PD(SA) 700 RU, HTRA1^PD 900 RU, HTRA1^PD-ABP 900 RU, HTRA2^PD/PDZ 500 RU, HTRA3^PD/PDZ 500 RU, HTRA4^PD/PDZ 500 RU. All CKPs were prepared in HBS-EP buffer (0.01 M HEPES pH 7.4, 0.15 M NaCl, 3 mM EDTA, 0.005% v/v Surfactant P20). All CKP concentrations were injected for 120 s at a flow rate of 30 μl/min. A reference channel was subtracted from the HTRA-captured channel.\nBinding kinetics of peptides to HTRA1^PD(SA) were determined by flowing six serial three-fold dilutions of peptide over the HTRA1^PD(SA) immobilized surface using a single cycle kinetics model. CKP maximum concentrations were as follows: 1A7, 1A8, 1C10, 2D5, and 3A7, 300 nM; 1G10-ENI and 1D3-ENI, 100 nM; 3B3, 3000 nM; and CPI, 10,000 nM. Data were analyzed using GE BIA evaluation software using a 1:1 Langmuir binding model. The KD values, calculated from the determined kon and koff values, were the mean ± S.D. of 3–4 independent experiments."}, "HTRA4^PD/PDZ, HTRA4^FL": {"target": "T3, HTRA4^PD/PDZ, HTRA4^FL (Homo sapiens, UniProt P83105)", "T3 construct": "purchased Abcam (FL form); the PD/PDZ form was made in house in E. coli ab134444", "T3 sequence (P83105 32-476)": "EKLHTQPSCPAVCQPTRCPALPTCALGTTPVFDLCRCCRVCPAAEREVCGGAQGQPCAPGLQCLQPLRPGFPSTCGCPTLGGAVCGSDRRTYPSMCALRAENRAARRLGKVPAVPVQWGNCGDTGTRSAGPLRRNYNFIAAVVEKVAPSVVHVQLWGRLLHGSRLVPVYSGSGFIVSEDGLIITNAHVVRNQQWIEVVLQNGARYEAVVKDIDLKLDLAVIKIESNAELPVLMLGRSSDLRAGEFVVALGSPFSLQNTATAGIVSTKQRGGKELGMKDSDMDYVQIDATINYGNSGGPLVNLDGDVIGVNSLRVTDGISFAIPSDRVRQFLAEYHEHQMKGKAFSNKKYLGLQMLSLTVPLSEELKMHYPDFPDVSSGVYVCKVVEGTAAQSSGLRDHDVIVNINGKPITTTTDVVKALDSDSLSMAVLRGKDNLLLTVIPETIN", "experiment": "H2-OPT selectivity assay, HTRA4", "format": "biochemical", "settings": "6 nM HTRA4^FL, 2 µM CKP; p<0.001 vs DMSO", "description": "as §1"}, "CKP stability assay": {"experiment": "CKP stability assay", "format": "physicochemical", "settings": "chemical stability, PBS containing 0.15% DMSO, 0.3 mM (~1 mg/ml), 37 °C, LC-MS, HPLC UV 220 nm peak area normalized to DMSO peak, two independent experiments, preliminary", "description": "The CKPs 1G10 and 1G10-ENI were incubated in PBS containing 0.15% DMSO at a concentration of 0.3 mM (~1 mg/ml) at 37 °C for 30 days. Samples from two independently performed experiments were frozen at −20 °C until further analysis. Thawed samples were diluted in H2O and injected into LC-MS (Agilent). From the HPLC UV trace (at 220 nm) the CKP peak area was normalized to the DMSO peak area from the same run. The values obtained from multiple HPLC runs were averaged and shown as dot plot."}, "[1]": {"settings": "SPR Biacore S200, 25 °C, single cycle kinetics, 1:1 Langmuir model"}, "[2]": {"settings": "SPR, calculated from kon and koff, CPI up to 10 µM"}},
  "note": "Entries after “also recorded” stand apart in the source; their conditions may differ. Positions of bridges follow the written chain, without caps; N, C: chain ends. Residues, ends and D or L forms follow the SMILES beside them. No end group written: not given here.",
  "data": [
    {"molecule": "CC[C@H](C)[C@H](NC(=O)[C@H](CCC(N)=O)NC(=O)[C@H](CCCNC(=N)N)NC(=O)[C@H](CC(C)C)NC(=O)CNC(=O)[C@H](Cc1c[nH]c2ccccc12)NC(=O)CNC(=O)[C@@H]1CSSC[C@@H]2NC(=O)[C@H](CC(=O)O)NC(=O)[C@H](CC(=O)O)NC(=O)[C@H](Cc3c[nH]cn3)NC(=O)[C@H]([C@@H](C)O)NC(=O)[C@H](CCCCN)NC(=O)[C@@H]3CSSC[C@H](NC(=O)[C@H]([C@@H](C)O)NC(=O)[C@H](CCC(N)=O)NC(=O)[C@H](CSSC[C@H](NC(=O)[C@@H](NC(=O)[C@@H]4CCCN4C(=O)[C@H](CC(=O)O)NC(=O)[C@H](C)NC(=O)[C@@H](N)Cc4c[nH]cn4)[C@@H](C)CC)C(=O)N[C@@H](CC(N)=O)C(=O)N[C@@H](CCCCN)C(=O)N4CCC[C@H]4C(=O)N3)NC(=O)[C@H](Cc3ccccc3)NC(=O)[C@H](Cc3c[nH]c4ccccc34)NC(=O)[C@H](C)NC(=O)CNC(=O)[C@H](CO)NC2=O)C(=O)N[C@@H](Cc2ccc(O)cc2)C(=O)N[C@@H](Cc2ccc(O)cc2)C(=O)N[C@@H](C)C(=O)N[C@@H]([C@@H](C)O)C(=O)N[C@@H](Cc2c[nH]c3ccccc23)C(=O)N[C@@H](CO)C(=O)N1)C(=O)N[C@@H](CC(=O)O)C(N)=O", "note": "[1A8] (H-HADPICNKPCKTHDDCSGAWFCQTCYYATWSCGWGLRQID-NH2; disulfide 6-22, 10-25, 16-32)", "values": [
      {"measurement": "IC50", "setting": "HTRA1^FL", "result": "1.9 ± 0.15", "unit": "nM"},
      {"measurement": "koff", "setting": "HTRA1^PD(SA); [1]", "result": "0.5 ± 0.1", "unit": "s-1 x10-4"},
      {"measurement": "kon", "setting": "HTRA1^PD(SA); [1]", "result": "8.2 ± 3.5 M-1 s-1 x104"},
      {"measurement": "Kd", "setting": "HTRA1^PD(SA); [2]", "result": "0.66 ± 0.42", "unit": "nM"},
      {"measurement": "Reduction of HTRA4^FL activity, H2-OPT", "setting": "HTRA4^PD/PDZ, HTRA4^FL", "result": 13, "unit": "%"}
    ]},
    {"molecule": "CC[C@H](C)[C@H](NC(=O)[C@@H]1CCCN1C(=O)[C@H](CC(=O)O)NC(=O)[C@H](C)NC(=O)[C@@H](N)Cc1c[nH]cn1)C(=O)N[C@H]1CSSC[C@@H]2NC(=O)[C@H](Cc3ccccc3)NC(=O)[C@H](Cc3c[nH]c4ccccc34)NC(=O)[C@H](C)NC(=O)CNC(=O)[C@H](CO)NC(=O)[C@@H]3CSSC[C@@H](C(=O)NCC(=O)N4CCC[C@H]4C(=O)N[C@@H](Cc4ccc(O)cc4)C(=O)N[C@H](C(=O)NCC(N)=O)C(C)C)NC(=O)[C@H]([C@@H](C)O)NC(=O)[C@H](CCCNC(=N)N)NC(=O)[C@H](C)NC(=O)[C@H](CO)NC(=O)[C@H](CC(N)=O)NC(=O)[C@H](Cc4c[nH]c5ccccc45)NC(=O)[C@H](CSSC[C@H](NC(=O)[C@@H]4CCCN4C(=O)[C@H](CCCCN)NC(=O)[C@H](CC(N)=O)NC1=O)C(=O)N[C@@H](CCCCN)C(=O)N[C@@H]([C@@H](C)O)C(=O)N[C@@H](Cc1c[nH]cn1)C(=O)N[C@@H](CC(=O)O)C(=O)N[C@@H](CC(=O)O)C(=O)N3)NC(=O)[C@H](C)NC(=O)[C@H](CCC(N)=O)NC2=O", "note": "[CPI, reference compound] (H-HADPICNKPCKTHDDCSGAWFCQACWNSARTCGPYVG-NH2; disulfide 6-22, 10-25, 16-32)", "values": [
      {"measurement": "Inhibition of HTRA1^FL activity (inhibition curves)", "setting": "HTRA1^FL; H2-OPT substrate, Fig. 1b", "result": "no activity"},
      {"measurement": "KD", "setting": "HTRA1^PD(SA); [2]", "result": "No binding"}
    ]},
    {"molecule": "CC[C@H](C)[C@H](NC(=O)[C@H](CCC(N)=O)NC(=O)[C@H](CCCNC(=N)N)NC(=O)[C@H](CC(C)C)NC(=O)CNC(=O)[C@H](Cc1c[nH]c2ccccc12)NC(=O)CNC(=O)[C@@H]1CSSC[C@@H]2NC(=O)[C@H](CC(=O)O)NC(=O)[C@H](CC(=O)O)NC(=O)[C@H](Cc3c[nH]cn3)NC(=O)[C@H]([C@@H](C)O)NC(=O)[C@H](CCCCN)NC(=O)[C@@H]3CSSC[C@H](NC(=O)[C@H]([C@@H](C)O)NC(=O)[C@H](CCC(N)=O)NC(=O)[C@H](CSSC[C@H](NC(=O)[C@@H](NC(=O)[C@@H]4CCCN4C(=O)[C@H](CC(=O)O)NC(=O)[C@H](C)NC(=O)[C@@H](N)Cc4c[nH]cn4)[C@@H](C)CC)C(=O)N[C@@H](CC(N)=O)C(=O)N[C@@H](CCCCN)C(=O)N4CCC[C@H]4C(=O)N3)NC(=O)[C@H](Cc3ccccc3)NC(=O)[C@H](Cc3c[nH]c4ccccc34)NC(=O)[C@H](C)NC(=O)CNC(=O)[C@H](CO)NC2=O)C(=O)N[C@@H](Cc2ccc(O)cc2)C(=O)N[C@@H](CC(C)C)C(=O)N[C@@H](C)C(=O)N[C@@H]([C@@H](C)O)C(=O)N[C@@H](Cc2c[nH]c3ccccc23)C(=O)N[C@@H](CO)C(=O)N1)C(=O)N[C@@H](CC(=O)O)C(N)=O", "note": "[Y27L] (H-HADPICNKPCKTHDDCSGAWFCQTCYLATWSCGWGLRQID-NH2; disulfide 6-22, 10-25, 16-32)", "values": [
      {"measurement": "IC50", "setting": "HTRA1^FL", "result": "49.9 ± 3.8", "unit": "nM"}
    ]},
    {"molecule": "YPVDPICNKPCKTHDDCSGAWFCQTCYYATWSCGWGLRQID-NH2 (disulfide 7-23, 11-26, 17-33) [1G10]", "values": [
      {"measurement": "Stability: intact peptide after 30 days", "setting": "CKP stability assay", "result": "no change in peptide mass at 30 days; also recorded: highly stable"}
    ]}
  ]
}
